# Data reported in US20220168430A1, “THERAPEUTIC METHODS FOR TREATING HEPATITIS B” (priority 2019, published 2022).
# Read-outs that look alike come from different tables or passages of the source.
# Tested on: HBV DNA
# Assay: HBV DNA by branched DNA assay in HepG2.2.15 cells, two-compound combinations (Examples 13-14)
# Type: cell-based, HBV; HepG2.2.15 (human hepatoblastoma)
# Details: for EC50: Hepatitis B virus; for MacSynergy Volume Calculations, 99.99% confidence interval (Bonferroni Adj. 96%) / Average percent inhibition versus negative control: Cmpd 2 μM: 0.01, 0.0032, 0.001, 0.0003, 0.0001, 0; for Average percent inhibition versus negative control: n = 4; for Additive percent inhibition versus negative control: Compound (2) μM: 0.01, 0.0032, 0.001, 0.0003, 0.0001, 0
# Method: In vitro combination studies were conducted using the method of Prichard and Shipman (Prichard M N, and Shipman C Jr., Antiviral Research, 1990, 14(4-5), 181-205; and Prichard M N, et. al., MacSynergy II). The HepG2.2.15 cell culture system is a cell line derived from human hepatoblastoma HepG2 cells, which have been stably transfected with the adw2-subtype HBV genome as previously explained in Sells et al. (Proc. Natl. Acad. Sci. U. S. A, 1987. Vol 84:1005-1009). HepG2.2.15 cells secrete Dane-like viral particles, produce HBV DNA, and produce the viral proteins, HBeAg and HBsAg.
# Although inhibition of HBV DNA, RNA and proteins can be determined in the presence of these inhibitors, we used the branched DNA assay due to its ability to quantitatively measure the level HBV DNA.
# Detection of HBV DNA. The branched DNA assay (bDNA) was used to determine the effect of compound combinations on HBV DNA. HepG2.2.15 (10,000 cells/well) were cultured in DMEM medium plus supplements as described above. The next day, the cells were replenished with fresh medium followed by the addition of Inhibitor A and B, both were dissolved in 100% DMSO. The microtiter cell plates were incubated for a total duration of 6 days at 37° C. without replenishing media or compound. The serial dilutions spanned concentration ranges respective to the EC50 value of each compound. In addition to combination testing of the compounds, both inhibitors A and B were also tested singly.
# The level of bDNA present in the inhibitor-treated supernatant wells was measured using a Quantigene 2.0 bDNA assay kit (Affymetrix, Santa Clara, Calif.) with HBV specific custom probe set (genotype D ayw; DF-10739) and manufacturer's instructions after performing a proteinase K digestion in lysis. The plates were read using a Victor luminescence plate reader (PerkinElmer Model 1420 Multilabel counter) and the RLU data generated from each well was calculated as inhibition of the untreated control wells. The data was analyzed using the interpretive guidelines established by Prichard and Shipman combination model using the MacSynergy II program (Prichard M N, Shipman C Jr. Antiviral Research, 1990. Vol 14(4-5):181-205; Prichard M N, Aseltine KR, and Shipman, C. MacSynergy II. University of Michigan 1992) to determine whether the combinations were synergistic, additive or antagonistic using the interpretive guidelines established by Prichard and Shipman as follows: synergy volumes <25 μM2% (log volume <2) at 95% CI=probably insignificant; 25-50 (log volume >2 and <5)=minor but significant 50-100 (log volume >5 and <9)=moderate, may be important in vivo; Over 100 (log volume >9)=strong synergy, probably important in vivo; volumes approaching 1000 (log volume >90)=unusually high, check data. The RLU data from the single compound treated cells were analyzed using XL-Fit module in Microsoft Excel to determine EC50 values using a 4-parameter curve fitting algorithm.
smiles,measurement,setting,value
"CC(C)OC(=O)[C@H](C)N[P@](=O)(CO[C@H](C)Cn1cnc2c(N)ncnc21)Oc1ccccc1 [TAF, tenofovir alafenamide]",EC50,"HepG2.2.15, read-out: Inhibitor A EC50",54 nM
same,"MacSynergy Volume Calculations, 99.99% confidence interval (Bonferroni Adj. 96%)",TAF 0.0002 μM,0
same,Average percent inhibition versus negative control,TAF 0.0002 μM,8.88%
same,Additive percent inhibition versus negative control,TAF 0.0002 μM,8.88%
same,"MacSynergy Volume Calculations, 99.99% confidence interval (Bonferroni Adj. 96%)",TAF 0.0006 μM,0
same,Average percent inhibition versus negative control,TAF 0.0006 μM,12.91%
same,Additive percent inhibition versus negative control,TAF 0.0006 μM,12.91%
same,"MacSynergy Volume Calculations, 99.99% confidence interval (Bonferroni Adj. 96%)",TAF 0.0020 μM,0
same,Average percent inhibition versus negative control,TAF 0.0020 μM,14.28%
same,Additive percent inhibition versus negative control,TAF 0.0020 μM,14.28%
same,"MacSynergy Volume Calculations, 99.99% confidence interval (Bonferroni Adj. 96%)",TAF 0.0064 μM,0
same,Average percent inhibition versus negative control,TAF 0.0064 μM,19.87%
same,Additive percent inhibition versus negative control,TAF 0.0064 μM,19.87%
same,"MacSynergy Volume Calculations, 99.99% confidence interval (Bonferroni Adj. 96%)",TAF 0.0201 μM,0
same,Average percent inhibition versus negative control,TAF 0.0201 μM,25.36%
same,Additive percent inhibition versus negative control,TAF 0.0201 μM,25.36%
same,"MacSynergy Volume Calculations, 99.99% confidence interval (Bonferroni Adj. 96%)",TAF 0.0634 μM,0
same,Average percent inhibition versus negative control,TAF 0.0634 μM,42.96%
same,Additive percent inhibition versus negative control,TAF 0.0634 μM,42.96%
same,"MacSynergy Volume Calculations, 99.99% confidence interval (Bonferroni Adj. 96%)",TAF 0.2002 μM,0
same,Average percent inhibition versus negative control,TAF 0.2002 μM,62.7%
same,Additive percent inhibition versus negative control,TAF 0.2002 μM,62.7%
same,"MacSynergy Volume Calculations, 99.99% confidence interval (Bonferroni Adj. 96%)",TAF 0.6329 μM,0
same,Average percent inhibition versus negative control,TAF 0.6329 μM,76.45%
same,Additive percent inhibition versus negative control,TAF 0.6329 μM,76.45%
same,"MacSynergy Volume Calculations, 99.99% confidence interval (Bonferroni Adj. 96%)",TAF 2.0 μM,0
same,Average percent inhibition versus negative control,TAF 2.0 μM,87.21%
same,Additive percent inhibition versus negative control,TAF 2.0 μM,87.21%
COCCCOc1cc2c(nc1OC)-c1cc(=O)c(C(=O)O)cn1[C@H](C(C)C)C2 [Compound 2],"MacSynergy Volume Calculations, 99.99% confidence interval (Bonferroni Adj. 96%)",ETV 0 μM,0.00
same,EC50,"HepG2.2.15, HepG2.2.15, bDNA quantitation, study with ETV as Inhibitor A, read-out: Inhibitor B EC50",0.9 nM
same,EC50,"HepG2.2.15, HepG2.2.15, bDNA quantitation, study with TAF as Inhibitor A, read-out: Inhibitor B EC50",0.6 nM
same,"MacSynergy Volume Calculations, 99.99% confidence interval (Bonferroni Adj. 96%)",TAF 0 μM,0
